Data on two compounds can be found in US9403756B2, “N-phenyl anthranilic acid derivatives and uses thereof” (Ramot at Tel-Aviv University Ltd., priority 2007, dated 2016).

One assay concerns the target T1, Kv 4.3 (Homo sapiens, UniProt Q9UK17).
T1 construct: expressed in transfected cells; host or cells: Xenopus oocytes
Briefly: Kv channel selectivity, Xenopus oocytes: Kv4.3. The class given is cell-based. The following applies: 25 μM, +30 mV. The procedure:
Voltage-clamp measurements in Xenopus oocytes were performed as previously described.
The selectivity of NH29 on other relevant Kv channels expressed in Xenopus oocytes was also studied, and the results are summarized in Table 3 below. The specificity of NH29 at 25 μM and 50 μM towards various Kv channels was tested in Xenopus oocytes, except for Kv1.2 which was checked in transfected CHO cells. The current amplitude of the various Kv channels was tested at the indicated voltages and the effect of the drugs was expressed as fold of the control amplitude measured under the same conditions in the absence of the drug. The data in Table 3 are expressed as mean±SEM of 5-7 separate experiments.

The target in assay [1] is T2, TRPV1 channels in Dorsal Root Ganglions (DRG) (Rattus norvegicus, UniProt O35433).
T2 construct: endogenous in cells; host or cells: primary rat dorsal root ganglion neurons
T2 sequence (O35433 whole entry): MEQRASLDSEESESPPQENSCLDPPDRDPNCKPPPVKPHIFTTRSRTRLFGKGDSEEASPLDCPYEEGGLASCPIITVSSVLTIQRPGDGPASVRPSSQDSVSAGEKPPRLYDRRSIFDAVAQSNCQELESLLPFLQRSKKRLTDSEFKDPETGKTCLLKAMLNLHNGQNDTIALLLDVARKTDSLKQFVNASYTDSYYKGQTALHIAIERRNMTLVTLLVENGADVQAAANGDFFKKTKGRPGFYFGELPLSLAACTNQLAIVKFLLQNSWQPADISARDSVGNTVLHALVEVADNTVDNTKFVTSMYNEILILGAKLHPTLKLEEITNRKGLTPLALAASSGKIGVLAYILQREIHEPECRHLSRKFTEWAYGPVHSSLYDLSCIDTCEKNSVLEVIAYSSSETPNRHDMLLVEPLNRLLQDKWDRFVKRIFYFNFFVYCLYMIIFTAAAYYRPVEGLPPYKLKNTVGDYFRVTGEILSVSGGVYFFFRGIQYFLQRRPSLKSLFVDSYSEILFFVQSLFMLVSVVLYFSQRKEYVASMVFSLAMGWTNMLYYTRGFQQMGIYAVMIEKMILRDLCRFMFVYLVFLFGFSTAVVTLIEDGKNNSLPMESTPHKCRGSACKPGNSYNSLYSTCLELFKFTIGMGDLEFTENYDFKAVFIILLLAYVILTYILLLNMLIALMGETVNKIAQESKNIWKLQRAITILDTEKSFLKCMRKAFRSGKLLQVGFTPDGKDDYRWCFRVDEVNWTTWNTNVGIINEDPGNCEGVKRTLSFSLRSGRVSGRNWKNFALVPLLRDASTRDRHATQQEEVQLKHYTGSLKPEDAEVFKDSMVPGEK
Briefly: TRPV1 currents in DRG neurons activated by capsaicin. The class given is cell-based. The conditions noted are these: 5 μM; 0.5 μM capsaicin; reversible. The procedure: FIG. 14 presents the inhibitory effect of NH29, an exemplary compound according to some embodiments of the present invention, on TRPV1 channels in Dorsal Root Ganglions (DRG).
For dorsal root ganglion (DRG) neuronal cultures, ganglia were dissected from 2-5 day-old Sprague-Dawley rats killed by decapitation. DRGs were placed in Hank's balanced saline solution (HBSS) and prepared by enzymatic dissociation. Briefly, after 30 minutes incubation in 5 mg/ml dispase, 2 mg/ml collagenase type 1A and 0.1 mg/ml DNase (Invitrogen/Gibco, Carlsbad, Calif.) in Ca^2+ and Mg^2+-free HBSS, the ganglia were mechanically triturated with a fire-polished glass Pasteur pipette. The ganglia were then centrifuged for 5 minutes at 80×g and resuspended in DMEM supplemented with 2 mM L-glutamine, 16.5 mM NaHCO3, 6 g/l glucose, 5 ml penicillin/streptomycin and 10% fetal calf serum.
For electrophysiological recording, dissociated neurons were plated on 13 mm glass coverslips, previously coated with poly-D-lysine (1 mg/ml) and laminin (10 μg/ml) and used at 1-2 days in culture.

The target of another assay is T3, KCNQ2 mutant R201A (Homo sapiens, UniProt O43526, R201A).
T3 construct: expressed in transfected cells; host or cells: CHO cells
T3 sequence (O43526 whole entry R201A): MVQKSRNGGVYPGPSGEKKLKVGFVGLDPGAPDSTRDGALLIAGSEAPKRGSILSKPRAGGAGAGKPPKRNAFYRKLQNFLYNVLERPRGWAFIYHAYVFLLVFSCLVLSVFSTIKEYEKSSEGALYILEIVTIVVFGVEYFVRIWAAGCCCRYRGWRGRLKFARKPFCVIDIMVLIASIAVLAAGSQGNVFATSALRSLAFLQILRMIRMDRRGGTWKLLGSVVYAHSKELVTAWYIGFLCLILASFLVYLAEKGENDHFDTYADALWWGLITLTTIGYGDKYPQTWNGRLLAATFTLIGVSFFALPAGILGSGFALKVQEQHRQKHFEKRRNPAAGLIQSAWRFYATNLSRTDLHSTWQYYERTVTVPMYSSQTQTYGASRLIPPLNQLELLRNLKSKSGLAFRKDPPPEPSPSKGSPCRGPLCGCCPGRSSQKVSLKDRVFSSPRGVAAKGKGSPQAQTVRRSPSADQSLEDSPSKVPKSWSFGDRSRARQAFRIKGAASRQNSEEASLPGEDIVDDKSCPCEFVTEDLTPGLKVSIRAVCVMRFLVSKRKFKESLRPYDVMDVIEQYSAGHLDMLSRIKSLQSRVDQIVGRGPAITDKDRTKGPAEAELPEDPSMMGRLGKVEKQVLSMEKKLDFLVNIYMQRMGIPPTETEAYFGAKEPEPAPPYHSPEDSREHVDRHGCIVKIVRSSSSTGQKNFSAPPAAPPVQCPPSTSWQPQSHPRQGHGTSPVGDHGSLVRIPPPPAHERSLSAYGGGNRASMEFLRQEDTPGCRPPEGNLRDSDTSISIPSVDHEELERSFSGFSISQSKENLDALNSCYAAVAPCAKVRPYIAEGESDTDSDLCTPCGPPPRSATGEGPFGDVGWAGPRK
The experiment in a line: KCNQ2 S4 mutant R201A in CHO cells. The class given is cell-based. The conditions noted are these: 25 μM NH29 (25 M [sic]). From the text: (§1) FIGS. 12A-F present the potentiating effect of NH29, an exemplary channel opener compound according to embodiments of the present invention, on selected KCNQ2 mutants. Shown are bar diagrams comparing the potentiating effect of NH29 on native KCNQ2 and KCNQ2 mutants, wherein the mutated amino acids are located at the S1-S2 helix region (FIG. 12A) or S4 helix region (FIG. 12D) and wherein the opener effect is expressed as percent of the control current in the absence of the opener. For comparison, marked as a green line, is the observed current increase of native KCNQ2 by NH29. FIGS. 12B 12C, 12E and 12F present representative traces recorded from CHO cell transfected with the KCNQ2 mutant S122A, S121A, L206C and R201A respectively, before and after external application of 25 μM of NH29 and wherein the membrane potential was stepped from −90 mV holding potential to −40 mV for 1.5 seconds pulse duration.
(§2) Voltage-clamp recordings in CHO cells were performed, using the whole-cell configuration of the patch-clamp technique. Signals were amplified using an Axopatch 200B patch-clamp amplifier (Molecular Devices, Sunnyvale, Calif.), sampled at 2 kHz and filtered at 800 Hz via a 4-pole Bessel low pass filter. […] Series resistances (3-13 MΩ) were compensated (75-90%) and periodically monitored.

Another assay has as its target T4, homomeric KCNQ3 channels (Homo sapiens, UniProt O43525).
T4 construct: expressed in transfected cells
The experiment in a line: Homomeric KCNQ3 channels. The class given is cell-based. The conditions noted are these: 25 μM; very small currents through homomeric KCNQ3. The procedure: FIG. 8 presents a bar-graph comparing the potentiating effect of 25 μM of Compound NH29 on various KCNQ subunits and mutants, wherein the opener effect is expressed as percent of the control current in the absence of the opener;
FIG. 8 presents a bar-graph comparing the potentiating effect of 25 μM of Compound NH29 on various KCNQ subunits and mutants, wherein the opener effect is expressed as percent of the control current in the absence of the opener.

A further assay has as its target T5, KCNQ2 mutant I209L (Homo sapiens, UniProt O43526, I209L).
T5 construct: expressed in transfected cells; host or cells: CHO cells
Briefly: KCNQ2 S4 mutant I209L. The class given is cell-based. The conditions noted are these: NH29.
Text: as §1, §2

The target of a further assay is T6, KCNQ2 mutant R214W (Homo sapiens, UniProt O43526, R214W).
T6 construct: expressed in transfected cells; host or cells: CHO cells
T6 sequence (O43526 whole entry R214W): as the sequence (O43526 whole entry R201A) above, with A201R, R214W counted along it
Briefly: KCNQ2 S4 mutant R214W. The class given is cell-based. The following applies: NH29; to a lesser extent.
Text: as §1, §2

A further assay has as its target T7, KCNQ2 mutant L206C (Homo sapiens, UniProt O43526, L206C).
T7 construct: expressed in transfected cells; host or cells: CHO cells
The experiment in a line: KCNQ2 S4 mutant L206C in CHO cells. The class given is cell-based. The following applies: 25 μM NH29.
Text: as §1, §2

In another assay the test system is DRG neurons. The experiment in a line: Current-clamp recordings in cultured DRG neurons. The class given is cell-based, rat. The conditions noted are these: 25 μM NH29; 75-250 pA for 400 ms; control 8.7±0.8; n=12.
Assay [2] concerns maximal electroshock seizure model (MES) in ICR mice. The experiment in a line: Maximal electroshock seizure test (MES). The class given is in vivo. The following applies: Mus musculus, ip; mice; intraperitoneal, 30 minutes before electroshock; 50 mA, 0.2 sec; read-out: ED50, protection against tonic extension caused by MES. The procedure: The anti-convulsant effect was measured by the maximal electroshock seizure model (MES) in ICR mice as previously described. The procedures followed for experimentation and maintenance of the animals were approved by the animal research ethics committee of Tel Aviv University and in accordance with the Guide for the Care and Use of Laboratory Animals (1996, National Academy of Sciences, Washington D.C.). Briefly, maximal electroshock was induced in adult mice by means of two transcorneal electrodes delivering an alternative current of 50 mA at 60 Hz for 0.2 sec using rodent shocker (Hugo Sachs Electronik, type 221). […] The compounds, dissolved in 0.9% saline, were administered intraperitoneally 30 minutes before the electroshock was performed. Animals failing to show tonic hind limb extension were scored as protected and were expressed in percentage.

Structures are written as SMILES.

T5 sequence (O43526 whole entry I209L): as the sequence (O43526 whole entry R201A) above, with A201R, I209L counted along it
T7 sequence (O43526 whole entry L206C): as the sequence (O43526 whole entry R201A) above, with A201R, L206C counted along it
T1 sequence (Q9UK17 whole entry): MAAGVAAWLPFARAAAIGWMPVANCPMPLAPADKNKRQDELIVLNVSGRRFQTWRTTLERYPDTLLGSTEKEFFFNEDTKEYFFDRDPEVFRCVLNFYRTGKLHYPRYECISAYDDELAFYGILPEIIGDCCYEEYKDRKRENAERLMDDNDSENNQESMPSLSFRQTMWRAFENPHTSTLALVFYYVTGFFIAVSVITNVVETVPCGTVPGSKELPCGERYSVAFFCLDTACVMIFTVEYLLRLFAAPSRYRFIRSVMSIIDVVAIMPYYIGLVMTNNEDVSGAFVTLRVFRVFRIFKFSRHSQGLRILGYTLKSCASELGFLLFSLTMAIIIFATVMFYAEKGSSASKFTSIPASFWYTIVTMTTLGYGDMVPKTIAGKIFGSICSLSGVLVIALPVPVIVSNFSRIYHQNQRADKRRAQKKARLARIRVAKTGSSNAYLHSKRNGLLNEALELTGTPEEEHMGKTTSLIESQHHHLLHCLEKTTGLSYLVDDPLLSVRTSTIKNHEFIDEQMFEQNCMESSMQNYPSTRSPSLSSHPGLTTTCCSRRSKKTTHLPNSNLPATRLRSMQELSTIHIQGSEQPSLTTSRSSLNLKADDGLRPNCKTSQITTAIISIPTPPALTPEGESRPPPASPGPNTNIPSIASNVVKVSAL
T4 sequence (O43525 whole entry): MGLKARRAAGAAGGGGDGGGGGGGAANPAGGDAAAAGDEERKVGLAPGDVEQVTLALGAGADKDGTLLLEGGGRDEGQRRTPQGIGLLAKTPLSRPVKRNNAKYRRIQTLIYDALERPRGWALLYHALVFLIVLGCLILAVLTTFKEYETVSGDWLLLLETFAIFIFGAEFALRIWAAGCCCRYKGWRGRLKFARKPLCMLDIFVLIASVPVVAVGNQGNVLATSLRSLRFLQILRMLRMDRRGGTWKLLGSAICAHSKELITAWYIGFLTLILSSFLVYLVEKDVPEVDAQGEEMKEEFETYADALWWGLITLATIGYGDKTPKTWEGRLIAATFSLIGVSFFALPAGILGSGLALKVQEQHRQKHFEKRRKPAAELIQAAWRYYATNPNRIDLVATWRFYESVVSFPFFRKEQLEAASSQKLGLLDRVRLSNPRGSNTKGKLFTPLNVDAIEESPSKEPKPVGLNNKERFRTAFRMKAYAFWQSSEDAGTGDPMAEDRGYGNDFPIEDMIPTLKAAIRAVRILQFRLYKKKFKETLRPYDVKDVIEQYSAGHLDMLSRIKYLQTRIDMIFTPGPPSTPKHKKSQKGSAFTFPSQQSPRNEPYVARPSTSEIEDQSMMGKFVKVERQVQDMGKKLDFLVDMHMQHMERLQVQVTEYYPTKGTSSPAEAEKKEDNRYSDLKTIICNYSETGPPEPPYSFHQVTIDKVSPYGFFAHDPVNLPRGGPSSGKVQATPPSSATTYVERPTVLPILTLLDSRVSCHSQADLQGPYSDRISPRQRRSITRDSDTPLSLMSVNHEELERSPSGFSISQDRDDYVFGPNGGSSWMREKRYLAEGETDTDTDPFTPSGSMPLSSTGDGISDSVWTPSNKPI

With `O=C(Cc1cc([N+](=O)[O-])cc([N+](=O)[O-])c1Nc1c(Cl)cc([N+](=O)[O-])cc1Cl)NCCO` [NH29], the Fold current amplitude on Kv 4.3 is recorded as 1.1 ± 0.04 fold. Also, the “inhibition of TRPV1 current” value in assay [1] is “almost completely”. In addition, the “fold enhancement of current” value at KCNQ2 mutant R201A is 1.2 fold. At homomeric KCNQ3 channels, the “opening activity on homomeric KCNQ3 channels” value is “no opening activity was detected”. The “sensitivity to the activating effect compared to wild-type Kv7.2” value at KCNQ2 mutant I209L and at KCNQ2 mutant R214W was “significantly less sensitive” each time. Besides, the “opener activity on S4 mutant L206C” value at KCNQ2 mutant L206C is reported as “NH29 activity was preserved”. In the assay with DRG neurons, the “number of evoked action potentials” value was 0.9±0.1.
`O=C(Cc1cc([N+](=O)[O-])ccc1Nc1c(Cl)cccc1Cl)OCCO` [NH25]: the ED50 in [2] came to 12 mg/kg.
